Test results as given in patent US5670506A, “Halogen, isothiocyanate or azide substituted xanthines” (Cell Therapeutics, Inc., priority 1993, dated 1997).

Legend:
[1] = system: polymorphonuclear leukocytes; conditions: in response to a stimulator of chemotaxis; U.S. Pat. No. 4,636,507; cited from earlier work
[2] = U.S. Pat. Nos. 4,515,795 and 4,576,947; cited from earlier work
[3] = system: CMV promoter activity in transformed (adenovirus) cells; experiment: CMV promoter assay (gene transcription and translation, cytotoxic activity); assay type: cell-based
From the text: This example illustrates data regarding proliferative activity of various inventive compounds for inducting CMV promoter activity. The CMV promoter assay measures gene transcription and translation activity wherein any active compounds will nave cytotoxic activity to inhibit cellular protein synthesis machinery in transformed (adenovirus) cells.

[4] = system: TNF release from monocytes in whole blood; experiment: ex vivo human TNF model, LPS-mediated TNF release in whole blood; assay type: cell-based; conditions: FIG. 14
Protocol: (§1) This model adds LPS to whole blood (normal human volunteers) to trigger a dose-dependent synthesis and extracellular release of TNF according to Desch et al. (Lymphokine Res. 8:141, 1989). The ex vivo model examines whether LPS-mediated release of TNF from monocytes in whole blood can be block by an inventive compound.
An ex vivo human sepsis model is described in Desch et al., Lymphokine Res. 8:141, 1989 and in Ooi et al., J. Exp. Med. 174:649, 1991. Briefly, whole blood from humans is incubated with LPS (endotoxin). TNF released from cells (mostly from monocytes) is measured. The inventive compounds lower TNF levels as compared with untreated controls in this model.
as §1, with “This example illustrates a comparative experiment comparing CT1595, CT1529 and CT2519 in an ex vivo human TNF model described herein. This assay is a predictive model for treatment and prevention of septic shock and sepsis syndrome. This” for “This”

murine thymocytes = experiment: inhibition of murine thymocyte proliferation stimulated by ConA and IL-1α; assay type: cell-based, murine (Balb/C mice); conditions: FIG. 4, 4 days
Protocol: The drugs (inventive compounds) were added to the cells at the doses indicated two hours prior to activation with ConA and IL-1α. […] Background counts were less than 200 cpm. This in vitro assay is a model for immune suppression and treatment or prevention of autoimmune diseases.
A third assay measures an ability of an inventive compound to inhibit IL-2-induced proliferation of murine thymocytes. Thymus glands are obtained from 4-6 week old mice and plated as a single cell suspension into flat bottomed wells in RPMI 1640 medium supplemented with 10% fetal calf serum. The inventive compounds are added to appropriate wells and the cells are incubated for 1-2 hrs. Concanavilin A (ConA, 0.25 μg/ml) and IL-1 (20 ng/ml) are added and the plates are incubated for 4 days. Cell proliferation is determined as above. There are also variations for this assay that follow the same basic stimulation and measure inhibition of proliferation format. […]
This example illustrates the effect of CT1514, CT1525, CT1527, CT1529, CT1577, CT1583, CT1589, CT1595, CT2519, CT1205, CT1801 and CT1908 on inhibition of murine thymocyte proliferation stimulated by Concanavalin A (ConA) and interleukin-2 (IL-2) (FIG. 4). […] The cells were harvested and incorporated tritiated thymidine was determined in a liquid scintillation counter. […]

murine splenocytes = experiment: inhibition of murine splenocyte proliferation stimulated by anti-mu and IL-4; assay type: cell-based; conditions: FIG. 5; anti-mu (10 μg/ml) and IL-4 (12.5 ng/ml)
Protocol: Drug was added to the cells at the doses indicated two hours prior to activation with anti-mu and IL-4. This in vitro assay is a model for immune suppression and treatment or prevention of autoimmune diseases. […] Background counts were less than 200 cpm.
There are a series of in vitro assays that can be used to measure immunosuppressive activity of a particular compound. These assays are a predictive model for treatment or prevention of autoimmune diseases, such as diabetes, lupus, arthritis, and the like. A first assay measures immunosuppressive activity of a drug at the B cell level. Spleens from adult mice contain immature B cells that express surface IgM. Cross-linking the surface IgM with an anti-mu antibody results in B cell proliferation. Additionally, this activation results in an increased expression of interleukin-4 receptors(IL-4R) on the surface of such cells. IL-4 acts as a growth factor for B cells and will increase the amount of proliferation induced by anti-mu. In the first assay, a mixture of anti-mu and murine IL-4 is added to murine splenocytes to cause their proliferation. Mice spleens are obtained from adult mice and a single cell suspension is prepared in RPMI 1640 medium supplemented with 10% FCS. […] Proliferation is determined on the third day with a pulse of tritiated thymidine. […]

[5] = system: mixed lymphocyte assay culture (PBMC); experiment: percent viable cells in mixed lymphocyte assay culture after six days; assay type: cell-based, human; conditions: 100 μM
Protocol: Control cells that have not been exposed to a drug are generally 78 to 85% viable under such culture conditions. For this graph, all of the compounds were present at 100 μM, which is usually well above their IC50 concentration in this assay (see FIG. 1).

human stromal cells = experiment: inhibition of proliferation of human stromal cells stimulated with PDGF; assay type: cell-based
Protocol: (§2) This assay is a model for restenosis and treatment of atherosclerosis and coronary artery disease. Stromal cells were starved in serum-free media for one day and then stimulated with 50 ng/ml PDGF-BB. The drags were added at the indicated concentrations one hour prior to PDGF stimulation. Tritiated thymidine was added for one day at the time of PDGF stimulation and the cells were harvested and counted by liquid scintillation counting 24 hrs later. Background counts (i.e., starved cells) were approximately 1% of control levels.
Another assay for measuring activity of the inventive compounds involves determining PDGF (platelet derived growth factor) proliferative response using human-derived stromal cells. Human stromal cells are plated (e.g., about 2000 cells per well) in defined media (e.g., 69% McCoy's, 12.5% fetal calf serum, 12.5% horse serum, 1% antibiotics, 1% glutamine, 1% vitamin supplement, 0.8% essential amino acids, 1% sodium pyruvate, 1% sodium bicarbonate, 0.4% non-essential amino acids and 0.36% hydrocortisone). Two to three days later, the stromal cells are starved in serum-free media. Twenty four hours later, the cells are treated with a stimulating agent, such as PDGF-AA, PDGF-BB or basic FGF (fibroblast growth factor) with or without IL-1α or TNF, and tritiated thymidine. Cell proliferation is determined by liquid scintillation counting.
as §2, with “drugs” for “drags”

LPAAT = experiment: formation of remodeled PA (LPAAT), in vitro; assay type: cell-based; conditions: high PTX concentrations
From the text: Even in the presence of PTX, cells continue to form PA through the action of PLD, and DAG is also formed through the action of phospholipase C on PC and PI. The latter pathway are not inhibited by the inventive compounds or PTX. In PTX-treated cells, DAG derived from remodeled and PLA-generated PA is diminished (e.g., 1,2-sn-dioleoyl DAG, 1-alkyl,2-linoleoyl DAG and 1-alkyl,2-docosahexaneolyl DAG). Therefore, the inventive compounds and PTX inhibit the formation of only a certain species of PA and DAG by selectively inhibiting a specific second messenger pathway that is only activated in cells by noxious stimuli, but is not used to signal normal cellular housekeeping functions.

TNF = conditions: human, in vivo; cited from earlier work
PAPH = PAPH blockade in a specific activation pathway; assay type: cell-based, human; conditions: specific activation pathway that does not involve PI
From the text: The compounds and pharmaceutical compositions of the invention include inhibitors of subspecies of LPAAT and PAPH enzymes with substrate specificity for intermediates with 1,2-diunsaturated and 1-alkyl, 2-unsaturated subspecies. One representative example of such an inhibitor (although not within the genus of inventive compounds) is PTX. […] It should be emphasized that the compounds of the invention affect that subset of PAPH and LPAAT that relates to substrates with unsaturated fatty acids other than arachidonate in the sn-2 position, not the housekeeping forms of these enzymes that serve the PI pathway.

[6] = system: ras-transformed NIH/3T3 cells; experiment: serum-stimulated generation of DAG and PA in ras-transformed NIH/3T3 cells; assay type: cell-based; conditions: pretreatment of cells
From the text: For example, activating ras mutations result in increased generation of DAG on stimulation with mitogens, although the sources of DAG have differed between experimental systems. In nontransformed renal mesangial cells, IL-1β stimulation increased PLA2 and LPAAT activation, resulting in generation of sn-2 unsaturated PA and subsequent hydrolysis to DAG by phosphatidate phosphohydrolase. The ras transformation in NIH/3T3 cells upregulates serum-stimulated generation of DAG and PA. The specific species of DAG that is stimulated by serum is dioleoyl and for PA are dilinoleoyl and dioleoyl. […] The inhibition occurs either through suppressing the generation of PA de novo from lysoPA, or through inhibition of one or both arms of the Lands cycle. […] Therefore, the ras transformation mediates an upregulation of PA through indirect stimulation of PLA2 and/or LPAAT activity.

[7] = system: ras-transformed NIH/3T3 cells

SMILES | stimulation of chemotaxis in polymorphonuclear leukocytes [1] | cerebral blood flow [2] | cytotoxicity in CMV promoter assay ([3]; in words) | IC50 ([3]; read-out: IC50 (μM), CMV promoter assay) [µM] | block of LPS-mediated TNF release [4] | inhibition of thymocyte proliferation (murine thymocytes) | inhibition of splenocyte proliferation (murine splenocytes) | viability in MLR culture [5] | inhibition of human stromal cell proliferation (human stromal cells; FIG. 7, 50 ng/ml PDGF-BB, in words) | IC50 (human stromal cells; Homo sapiens, read-out: IC50, inhibition of human stromal cell proliferation) [µM] | formation of remodeled PA (LPAAT) | TNF levels in normal volunteers (TNF) | PAPH block (PAPH) | generation of phospholipid second messengers (DAG, PA) [6] | cytotoxicity associated with inhibition of ras-transformed cells [7] | inhibition of ras-transformed NIH/3T3 cells ([7]; vs parental cells)
CC(O)CCCCn1c(=O)c2c(ncn2C)n(C)c1=O (centres unmarked) [M1, 1-(5-hydroxyhexyl)-3,7-dimethylxanthine] | stimulate chemotaxis | increasing cerebral blood flow | – | – | – | – | – | – | – | – | – | – | – | – | – | –
CC(CCCCn1c(=O)c2c(ncn2C)n(C)c1=O)N=C=S (centres unmarked) [CT2519, 1-(5-isothiocyanatohexyl)-3,7-dimethylxanthine] | – | – | most cytotoxic compound tested | 10 | could block TNF release in a dose-dependent fashion | most potent drugs | most potent inhibitors of splenocyte proliferation in a dose-response manner | not cytotoxic at 100 μM | strongly inhibit proliferation | < 10 | – | – | – | – | – | –
CC(=O)CCCCn1c(=O)c2c(ncn2C)n(C)c1=O [PTX, 1-(5-oxohexyl)-3,7-dimethylxanthine] | stimulate chemotaxis | – | – | – | – | – | – | – | – | – | blocks formation of remodeled PA | TNF levels were higher among PTX recipients | blocks PAPH | blocks generation of these phospholipid second messengers | not associated with significant cytotoxicity | inhibits ras-transformed NIH/3T3 cells more than parental cells
